One block for each molecule: values may come before it.
Molecular target: T1, human AMPK α1β1γ1 enzyme (Homo sapiens, UniProt Q13131+Q9Y478)
T1 construct: purchased Carna Biosciences, Inc
Assay: Evaluation of AMPK activator, Test Example 1 (mobility-shift kinase assay, FL-Peptide 7)
Format: biochemical
Conditions: for EC150 (compound concentration showing 150% relative to the control (100%)): human AMPK α1β1γ1, 25° C., 2 hours, 0.2 mM ATP final; for Emax: read-out: Emax (maximum rate of increase in activity within the measurement range)
Protocol: The obtained liquid was left to stand for 10 minutes.
The obtained liquid was allowed to react at 25° C. for 2 hours, and 10 μl of 20 mM EDTA was then added thereto to stop the reaction.
To detect phosphorylated fluorescent substrates, the reaction liquid was applied to a measuring device, LabChip EZ Reader II manufactured by Caliper Life Science, Inc., for detecting fluorescence by using differences in mobility due to differences in charge. The setting conditions for the device were pressure, −1.5 PSI; upstream voltage, −2250 V; downstream voltage, −400 V; post sample buffer sip time, 40 seconds; final delay, 120 seconds; and peak order, Product First.
A conversion rate was calculated from the peak heights of the resulting substrate and product. The conversion rate when not containing a compound was used as a control, and a concentration dependent curve was made by plotting the rate of increase in activity to the control at each concentration of a compound.

[1] = human AMPK α1β1γ1, relative to control (100%)

T1 sequence (Q13131 10-559 limits assumed): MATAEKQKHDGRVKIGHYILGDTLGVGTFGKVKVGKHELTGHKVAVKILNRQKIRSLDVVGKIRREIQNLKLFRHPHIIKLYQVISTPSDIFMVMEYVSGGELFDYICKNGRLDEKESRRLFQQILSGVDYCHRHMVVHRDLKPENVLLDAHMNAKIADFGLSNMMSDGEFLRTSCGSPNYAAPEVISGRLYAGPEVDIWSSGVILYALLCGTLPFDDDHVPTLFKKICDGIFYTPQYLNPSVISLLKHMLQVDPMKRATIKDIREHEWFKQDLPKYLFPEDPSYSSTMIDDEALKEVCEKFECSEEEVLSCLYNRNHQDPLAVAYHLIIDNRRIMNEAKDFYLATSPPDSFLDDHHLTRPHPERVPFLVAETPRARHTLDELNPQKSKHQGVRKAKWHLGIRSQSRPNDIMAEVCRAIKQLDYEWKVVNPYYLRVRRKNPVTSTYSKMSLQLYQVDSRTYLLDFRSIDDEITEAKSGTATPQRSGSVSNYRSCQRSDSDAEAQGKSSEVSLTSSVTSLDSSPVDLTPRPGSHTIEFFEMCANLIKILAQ
T1 sequence (Q9Y478 whole entry): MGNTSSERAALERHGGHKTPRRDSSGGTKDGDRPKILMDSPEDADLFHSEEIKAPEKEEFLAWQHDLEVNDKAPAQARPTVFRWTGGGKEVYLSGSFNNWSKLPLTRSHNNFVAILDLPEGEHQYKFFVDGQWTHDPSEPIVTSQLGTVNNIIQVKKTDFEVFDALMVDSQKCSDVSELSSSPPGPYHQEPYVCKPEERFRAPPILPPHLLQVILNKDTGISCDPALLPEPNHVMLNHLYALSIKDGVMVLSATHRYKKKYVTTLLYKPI
T1 sequence (P54619 whole entry partner): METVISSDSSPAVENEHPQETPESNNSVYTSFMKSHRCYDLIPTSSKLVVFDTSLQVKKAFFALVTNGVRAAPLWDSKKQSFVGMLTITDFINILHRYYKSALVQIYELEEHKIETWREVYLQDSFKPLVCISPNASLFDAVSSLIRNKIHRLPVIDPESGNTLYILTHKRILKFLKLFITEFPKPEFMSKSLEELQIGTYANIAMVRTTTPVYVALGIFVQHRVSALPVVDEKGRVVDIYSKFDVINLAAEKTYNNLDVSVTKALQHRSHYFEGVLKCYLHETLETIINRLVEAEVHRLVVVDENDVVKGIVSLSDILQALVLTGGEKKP

SMILES: Oc1cc(COc2nc3nc(-c4ccc(N5CCOCC5)cc4)c(Cl)cc3[nH]2)on1 [Compound I-1-12]
EC150 (compound concentration showing 150% relative to the control (100%)): 320 nM | Emax [1]: 263%

SMILES: CC(C)(C(=O)O)[C@]1(O)CC[C@@H](Oc2nc3nc(-c4ccc(N5CCCCC5)cc4)c(Cl)cc3[nH]2)CC1 [Compound I-3-51]
EC150 (compound concentration showing 150% relative to the control (100%)): 4.5 nM | Emax [1]: 338%

SMILES: O=C(O)CSc1nc2nc(-c3ccc(N4CCOCC4)cc3)c(Cl)cc2[nH]1 [Compound I-1-4]
EC150 (compound concentration showing 150% relative to the control (100%)): 160 nM | Emax [1]: 283%

SMILES: Clc1cc2[nH]c(OC3CCOCC3)nc2nc1-c1ccc(N2CCOCC2)cc1 [Compound I-3-12]
EC150 (compound concentration showing 150% relative to the control (100%)): 21 nM | Emax [1]: 211%

SMILES: CCC(Oc1nc2nc(-c3ccc(N4CCCC4)cc3)c(Cl)cc2[nH]1)c1cc(O)no1 (centres unmarked) [Compound I-3-69]
EC150 (compound concentration showing 150% relative to the control (100%)): 60 nM | Emax [1]: 259%

SMILES: O=C(O)CN1CCC(Oc2nc3nc(-c4ccc(N5CCOCC5)cc4)c(Cl)cc3[nH]2)CC1.O=CO [Compound I-1-11]
EC150 (compound concentration showing 150% relative to the control (100%)): 2100 nM | Emax [1]: 238%

SMILES: CC(C)(C(=O)O)[C@]1(O)CC[C@@H](Oc2nc3nc(-c4c(F)cc(N5CCOCC5)cc4F)ccc3[nH]2)CC1 [Compound I-3-62]
EC150 (compound concentration showing 150% relative to the control (100%)): 22 nM | Emax [1]: 333%

SMILES: CCC(Oc1nc2nc(-c3ccc(C4=CCC(NC(C)=O)CC4)cc3)c(Cl)cc2[nH]1)C(N)=O (centres unmarked) [Compound I-3-50]
EC150 (compound concentration showing 150% relative to the control (100%)): 160 nM | Emax [1]: 228%

SMILES: O=C(O)[C@]1(O)CC[C@@H](Oc2nc3nc(-c4ccc(N5CCOCC5)cc4)c(Cl)cc3[nH]2)CC1 [Compound I-3-75]
EC150 (compound concentration showing 150% relative to the control (100%)): 47 nM | Emax [1]: 236%

SMILES: O=C1CCC(Oc2nc3nc(-c4ccc(N5CCOCC5)cc4)c(Cl)cc3[nH]2)CN1 (centres unmarked) [Compound I-1-68]
EC150 (compound concentration showing 150% relative to the control (100%)): 4900 nM | Emax [1]: 174%

SMILES: O=C(O)COc1nc2nc(-c3ccc(N4CCOCC4)cc3)c(Cl)cc2[nH]1 [Compound I-1-10]
EC150 (compound concentration showing 150% relative to the control (100%)): 390 nM | Emax [1]: 270%

SMILES: CC(Sc1nc2nc(-c3ccc(N4CCOCC4)cc3)c(Cl)cc2[nH]1)C(=O)O (centres unmarked) [Compound I-1-39]
EC150 (compound concentration showing 150% relative to the control (100%)): 160 nM | Emax [1]: 258%

SMILES: CC(Oc1nc2nc(-c3ccc(N4CCCC4)cc3)c(Cl)cc2[nH]1)c1noc(=O)[nH]1 (centres unmarked) [Compound I-2-114]
EC150 (compound concentration showing 150% relative to the control (100%)): 49 nM | Emax [1]: 215%

SMILES: CN1CCc2cc(-c3nc4nc(O[C@H]5CC[C@](O)(C(C)(C)C(=O)O)CC5)[nH]c4cc3Cl)ccc21 [Compound I-3-52]
EC150 (compound concentration showing 150% relative to the control (100%)): 2.3 nM | Emax [1]: 400%

SMILES: O=C(COc1nc2nc(-c3ccc(N4CCOCC4)cc3)c(Cl)cc2[nH]1)N1CCC(F)(F)CC1 [Compound I-1-21]
EC150 (compound concentration showing 150% relative to the control (100%)): 730 nM | Emax [1]: 284%

SMILES: CC(C)(C(=O)O)[C@]1(O)CC[C@@H](Oc2nc3nc(-c4ccc(N5CCOCC5)cc4)c(Cl)cc3[nH]2)CC1 [Compound I-3-83]
EC150 (compound concentration showing 150% relative to the control (100%)): 24 nM | Emax (maximum rate of increase in activity within the measurement range) [1]: 278%

SMILES: CCC(Oc1nc2nc(-c3ccc(N4CCOCC4)cc3)c(Cl)cc2[nH]1)C(=O)O (centres unmarked) [Compound I-3-11]
EC150 (compound concentration showing 150% relative to the control (100%)): 61 nM | Emax [1]: 240%

Next, values leading:

EC150 (compound concentration showing 150% relative to the control (100%)): 3.4 nM | Emax [1]: 389%
SMILES: CC(C)(C(=O)O)[C@]1(O)CC[C@@H](Oc2nc3nc(-c4ccc(-c5ccccc5)cc4)c(Cl)cc3[nH]2)CC1 [Compound I-3-66]

EC150 (compound concentration showing 150% relative to the control (100%)): 72 nM | Emax [1]: 189%
SMILES: O=C(c1ccc(-c2ccc(-c3nc4nc(O[C@H]5CC[C@H](C(=O)O)CC5)[nH]c4cc3Cl)cc2)cc1)N1CCOCC1 [Compound I-2-61]

EC150 (compound concentration showing 150% relative to the control (100%)): 9.6 nM | Emax [1]: 301%
SMILES: CC(C)(C(=O)O)C1CCC(Oc2nc3nc(-c4ccc(C5=CCOCC5)cc4)c(Cl)cc3[nH]2)CC1 (centres unmarked) [Compound I-3-93]

EC150 (compound concentration showing 150% relative to the control (100%)): 4.9 nM | Emax [1]: 276%
SMILES: CN(C)C(=O)N1CC=C(c2ccc(-c3nc4nc(O[C@H]5CC[C@H](C(C)(C)C(=O)O)CC5)[nH]c4cc3Cl)cc2)CC1 [Compound I-3-85]

EC150 (compound concentration showing 150% relative to the control (100%)): 9.1 nM | Emax [1]: 311%
SMILES: CC(C)(C(=O)O)[C@H]1CC[C@H](Oc2nc3nc(-c4ccc(-c5ccc(C(=O)N6CCC(O)CC6)cc5)cc4)c(Cl)cc3[nH]2)CC1 [Compound I-3-106]

EC150 (compound concentration showing 150% relative to the control (100%)): 65 nM | Emax [1]: 288%
SMILES: CC(Oc1nc2nc(-c3ccc(N4CCOCC4)cc3)c(Cl)cc2[nH]1)[C@H]1CC[C@H](C(=O)O)CC1 (some centres unmarked) [Compound I-2-88]

Emax [1]: 194%
SMILES: O=C(O)[C@H]1C[C@H](Oc2nc3nc(-c4ccc(N5CCOCC5)cc4)c(Cl)cc3[nH]2)C1 [Compound I-2-118]

EC150 (compound concentration showing 150% relative to the control (100%)): 130 nM | Emax [1]: 232%
SMILES: CC(Oc1nc2nc(-c3ccc(C4=CCC(C(=O)O)CC4)cc3)c(Cl)cc2[nH]1)C(N)=O (centres unmarked) [Compound I-3-14]

Emax [1]: 236%
SMILES: CC(C)(CO)C1CCC(Oc2nc3nc(-c4ccc(N5CCOCC5)cc4)c(Cl)cc3[nH]2)CC1 (centres unmarked) [Compound I-3-89]

EC150 (compound concentration showing 150% relative to the control (100%)): 650 nM | Emax [1]: 169%
SMILES: CC(=O)NC1CC=C(c2ccc(-c3nc4nc(O[C@H]5CC[C@H](C(=O)O)CC5)[nH]c4cc3Cl)cc2)CC1 (some centres unmarked) [Compound I-2-58]

EC150 (compound concentration showing 150% relative to the control (100%)): 70 nM | Emax [1]: 236%
SMILES: NC(=O)[C@H]1CC[C@H](Oc2nc3nc(-c4ccc(N5CCOCC5)cc4)c(Cl)cc3[nH]2)CC1 [Compound I-2-33]

EC150 (compound concentration showing 150% relative to the control (100%)): 2300 nM | Emax [1]: 181%
SMILES: CC(=O)N1CC=C(c2ccc(-c3nc4nc(O[C@H]5CC[C@H](C(=O)O)CC5)[nH]c4cc3Cl)cc2)CC1 [Compound I-2-59]

EC150 (compound concentration showing 150% relative to the control (100%)): 23 nM | Emax [1]: 260%
SMILES: O=C(O)c1ccc(-c2ccc(-c3nc4nc(O[C@H]5C[C@@H](C(=O)N6CC(O)C6)C5)[nH]c4cc3Cl)cc2)cc1 [Compound I-3-115]

EC150 (compound concentration showing 150% relative to the control (100%)): 0.68 nM | Emax [1]: 343%
SMILES: CC(C)(C(=O)O)[C@H]1CC[C@H](Oc2nc3nc(-c4ccc(-c5ccccc5O)cc4)c(Cl)cc3[nH]2)CC1 [Compound I-3-97]

EC150 (compound concentration showing 150% relative to the control (100%)): 68 nM | Emax [1]: 221%
SMILES: O=C(O)C1CC=C(c2ccc(-c3nc4nc(OC5CCOCC5)[nH]c4cc3Cl)cc2)CC1 (centres unmarked) [Compound I-3-26]

EC150 (compound concentration showing 150% relative to the control (100%)): 49 nM | Emax [1]: 205%
SMILES: O=C(O)[C@H]1CC[C@H](Oc2nc3nc(-c4ccc(-c5ccccc5O)cc4)c(Cl)cc3[nH]2)CC1 [Compound I-2-60]

EC150 (compound concentration showing 150% relative to the control (100%)): 230 nM | Emax [1]: 210%
SMILES: CC(C)(C(N)=O)C1CCC(Oc2nc3nc(-c4ccc(N5CCOCC5)cc4)c(Cl)cc3[nH]2)CC1 (centres unmarked) [Compound I-3-25]

EC150 (compound concentration showing 150% relative to the control (100%)): 6400 nM | Emax [1]: 161%
SMILES: CC(Oc1nc2nc(-c3ccc(C4=CCC(C(=O)O)CC4)cc3)c(Cl)cc2[nH]1)c1ccccn1 (centres unmarked) [Compound I-2-104]

Source: patent publication US10093670B2, “Azabenzimidazole derivative having AMPK-activating activity” (Shionogi & Co., Ltd., priority 2011, dated 2018)
